Reference: ChEMBL document CHEMBL6078690, “Targeting HMGB1 and Its Interaction with Receptors: Challenges and Future Directions” (J Med Chem, 2024)

Tested on: RAW264.7
Assay: Anti-inflammatory activity against mouse RAW264.7 cells assessed as inhibition of LPS-induced NO production

SMILES	IC50 [µM]
COc1ccc(/C=C/C(=O)C[C@H]2CC[C@]3(C)[C@H]4C(=O)C=C5[C@@H]6C[C@@](C)(C(=O)Oc7cn(C8O[C@@H](OC(C)=O)[C@@H](OC(C)=O)[C@@H](OC(C)=O)[C@@H]8OC(C)=O)nn7)CC[C@]6(C)CC[C@@]5(C)[C@]4(C)CC[C@H]3C2(C)C)cc1 (stereo not given in full)	15.9
COC(=O)C(Cc1c[nH]c2ccccc12)NC(=O)[C@@]1(C)CC[C@]2(C)CC[C@]3(C)C(=CC(=O)[C@@H]4[C@@]5(C)CCC(OC(=O)CCCCC6CCSS6)C(C)(C)[C@@H]5CC[C@]43C)[C@@H]2C1 (stereo not given in full)	13.4
CC1(C)[C@@H](OC(=O)CCC(=O)O)CC[C@]2(C)[C@H]3C(=O)C=C4[C@@H]5C[C@@](C)(C(=O)O)CC[C@]5(C)CC[C@@]4(C)[C@]3(C)CC[C@@H]12 [CARBENOXOLONE]	5
O=C(O[C@@H]1Cc2c(O)cc(O)cc2O[C@@H]1c1cc(O)c(O)c(O)c1)c1cc(O)c(O)c(O)c1 [EPIGALOCATECHIN GALLATE]	< 1

Target: T1, High mobility group protein B1 (Homo sapiens, UniProt P09429)
T1 sequence (P09429 whole entry): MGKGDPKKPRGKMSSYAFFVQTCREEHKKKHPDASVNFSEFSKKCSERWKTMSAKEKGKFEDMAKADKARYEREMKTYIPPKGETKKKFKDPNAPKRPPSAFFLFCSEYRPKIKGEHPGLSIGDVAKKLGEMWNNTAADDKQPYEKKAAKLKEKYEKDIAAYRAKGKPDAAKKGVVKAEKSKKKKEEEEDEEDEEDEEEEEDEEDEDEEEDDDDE
Description: Binding affinity to HMGB1 (unknown origin) assessed as dissociation constant by SPR analysis

SMILES	Kd [µM]
CO[C@H]1O[C@H](COS(=O)(=O)O)[C@@H](O[C@@H]2O[C@@H](C(=O)O)[C@@H](COC[C@H]3O[C@H](COS(=O)(=O)O)[C@@H](O[C@@H]4O[C@H](C(=O)O)[C@@H](COC[C@H]5O[C@H](COS(=O)(=O)O)[C@@H](O)[C@H](O)[C@H]5NS(=O)(=O)O)[C@H](O)[C@H]4O)[C@H](OS(=O)(=O)O)[C@H]3NS(=O)(=O)O)[C@H](O)[C@H]2OS(=O)(=O)O)[C@H](O)[C@H]1NS(=O)(=O)O	4.5
CC(=O)Oc1ccccc1C(=O)O [ASPIRIN]	1
COc1ccc(-c2coc3cc(O)ccc3c2=O)cc1O [CALYCOSIN]	0.12
O=C(O)c1cc(-c2ccc(F)cc2F)ccc1O [DIFLUNISAL]	16
O=c1c(O[C@@H]2O[C@H](CO)[C@@H](O)[C@H](O)[C@H]2O)c(-c2ccc(O)c(O)c2)oc2cc(O)cc(O)c12 [ISOQUERCETIN]	0.1
C[C@@H]1O[C@@H](OC[C@H]2O[C@@H](Oc3c(-c4ccc(O)c(O)c4)oc4cc(O)cc(O)c4c3=O)[C@H](O)[C@@H](O)[C@@H]2O)[C@H](O)[C@H](O)[C@H]1O [RUTIN]	0.26
